Measured values reported in publication PMC10454375, “Cell-Impermeable Inhibitors Confirm That Intracellular Human Transglutaminase 2 Is Responsible for the Transglutaminase-Associated Cancer Phenotype” (International Journal of Molecular Sciences, 2023).
Peptide text beside a SMILES is read from it. * marks the point of attachment. X1 = C=CC(=O)NCCCCC(NC(=O)OCc1ccccc1)C(=O)N1CCN(C(=O)C(CCC(=O)*)NC(=O)c2cccc3ccccc23)CC1

Tests used:
TG6 = biological target: T1, TG6 (Homo sapiens, UniProt O95932); assay: TGase isozyme selectivity, TG6 with AL5 substrate; type: biochemical; settings: [I]/α identical to that of the TG2 assay
T1 construct: purchased Zedira GmbH (Darmstadt, Germany)
T1 sequence (O95932 1-706): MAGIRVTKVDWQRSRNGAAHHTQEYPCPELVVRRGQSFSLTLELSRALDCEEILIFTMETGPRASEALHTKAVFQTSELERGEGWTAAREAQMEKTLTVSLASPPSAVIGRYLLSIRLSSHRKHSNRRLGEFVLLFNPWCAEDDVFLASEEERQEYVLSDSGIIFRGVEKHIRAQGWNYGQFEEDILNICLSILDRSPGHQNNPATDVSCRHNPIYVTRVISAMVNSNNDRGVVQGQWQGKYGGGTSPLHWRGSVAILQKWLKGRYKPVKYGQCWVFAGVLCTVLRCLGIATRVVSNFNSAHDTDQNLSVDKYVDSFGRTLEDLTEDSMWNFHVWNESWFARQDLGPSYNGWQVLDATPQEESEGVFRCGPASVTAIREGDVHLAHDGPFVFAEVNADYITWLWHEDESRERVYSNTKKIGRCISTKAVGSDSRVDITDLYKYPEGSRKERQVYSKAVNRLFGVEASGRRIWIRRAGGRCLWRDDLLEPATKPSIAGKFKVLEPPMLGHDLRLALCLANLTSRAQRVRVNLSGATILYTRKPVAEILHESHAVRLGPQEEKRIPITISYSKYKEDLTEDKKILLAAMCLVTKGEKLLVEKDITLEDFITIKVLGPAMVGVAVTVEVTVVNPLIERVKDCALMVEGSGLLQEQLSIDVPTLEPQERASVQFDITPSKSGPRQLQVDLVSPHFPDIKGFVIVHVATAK
Excerpt: (§1) In the development of probes for TGases, isozyme selectivity is always a significant challenge. Since the catalytic machinery of the active sites of all TGases features a conserved Gly-Gln-Cys-Trp-Val sequence, selectivity for one isozyme over the others requires exploitation of slight differences in the protein substrate binding sites. In order to assess the isozyme selectivity of our cell-impermeable inhibitors, TG2 and four other therapeutically relevant TGases (Factor XIII, TG1, TG3, and TG6) were exposed to a concentration of inhibitor representing the same apparent competition with respect to the assay substrate (AL5 [38] or A101 [42, 43]). In other words, both the substrate and inhibitor concentrations were varied so that the [I]/α values were identical. […] This provides confidence that in further applications, these cell-impermeable inhibitors will selectively target TG2 over other transglutaminases.
[…] In brief, 125 µL assay buffer #1 (containing TRIS, CaCl2, and NaCl pH 7.5), 18 µL assay buffer #2 (containing TCEP and acceptor substrate H-Gly-OMe pH 7.5), and a respective concentration of inhibitor aqueous working stock balanced with various volumes of water were combined in a 96-well black plate with clear bottom/top. […] The isopeptidase activity of the respective TGase was then monitored at Ex/Em = 313/418 nm with a BioTek Synergy 4 plate reader at 25 °C. […]

P-gp = assay: MDCK cell permeability assay; type: in vitro ADME; settings: dog, without Pgp inhibitor
[1] = MDCK cell permeability assay; type: in vitro ADME; settings: dog, without Pgp inhibitor
TG3a = biological target: T2, TG3a (Homo sapiens, UniProt Q08188); assay: TGase isozyme selectivity, TG3a with A101 substrate; type: biochemical; settings: [I]/α identical to that of the TG2 assay
T2 construct: purchased Zedira GmbH (Darmstadt, Germany)
T2 sequence (Q08188 2-467 limits assumed): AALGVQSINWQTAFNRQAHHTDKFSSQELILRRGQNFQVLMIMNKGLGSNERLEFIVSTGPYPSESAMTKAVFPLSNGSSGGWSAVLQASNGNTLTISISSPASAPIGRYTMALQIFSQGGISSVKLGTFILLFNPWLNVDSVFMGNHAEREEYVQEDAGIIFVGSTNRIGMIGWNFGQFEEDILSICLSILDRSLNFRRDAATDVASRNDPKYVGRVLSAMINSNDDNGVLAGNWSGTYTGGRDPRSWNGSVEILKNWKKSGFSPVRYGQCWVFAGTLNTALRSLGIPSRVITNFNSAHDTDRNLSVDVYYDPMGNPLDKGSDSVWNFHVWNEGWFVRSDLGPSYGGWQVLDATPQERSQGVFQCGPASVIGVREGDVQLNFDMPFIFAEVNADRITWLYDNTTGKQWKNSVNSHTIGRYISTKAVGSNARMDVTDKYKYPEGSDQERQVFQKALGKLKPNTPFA
T2 sequence (Q08188 468-693 partner limits assumed): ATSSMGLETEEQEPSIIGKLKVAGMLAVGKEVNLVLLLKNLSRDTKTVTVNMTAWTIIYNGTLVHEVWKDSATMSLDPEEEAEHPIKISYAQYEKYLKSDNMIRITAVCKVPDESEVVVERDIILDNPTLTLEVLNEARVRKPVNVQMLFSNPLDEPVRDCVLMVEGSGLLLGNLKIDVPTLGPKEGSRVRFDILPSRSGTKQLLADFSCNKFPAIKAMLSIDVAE
Excerpt: as §1
To monitor the activity of TG3a and TG6, a FRET-quenched substrate A101 (Zedira Gmbh) was used. […] The isopeptidase activity of the respective TGase was then monitored at Ex/Em = 313/418 nm with a BioTek Synergy 4 plate reader at 25 °C. […]

Structure (SMILES) | inhibition of TG6 (TG6) | efflux ratio (P-gp) | Papp A→B [1] [×10⁻⁶ cm/s] | Papp B→A [1] [×10⁻⁶ cm/s] | inhibition of TG3 (TG3a)
C=CC(=O)NCCCCC(NC(=O)OCc1ccccc1)C(=O)N1CCN(C(=O)C(CCC(=O)NCC(=O)NCC(=O)NCC(=O)NC(CC(=O)O)C(=O)NC(CC(=O)O)C(=O)NC(CC(=O)O)C(=O)O)NC(=O)c2cccc3ccccc23)CC1 (stereo not shown) [Compound 18] (X1-GGGDDD-OH; configuration not given here) | no detectable inhibition | 1.18 | 0.47 | 0.56 | no detectable inhibition
C=CC(=O)NCCCCC(NC(=O)OCc1ccccc1)C(=O)N1CCN(C(=O)C(CCC(=O)NCCCCCC(=O)NC(CC(=O)O)C(=O)NC(CC(=O)O)C(=O)NC(CC(=O)O)C(=O)O)NC(=O)c2cccc3ccccc23)CC1 (stereo not shown) [Compound 17] | no detectable inhibition | 1.39 | 0.31 | 0.42 | no detectable inhibition
